Measured values reported in article PMC8819291, “Adaptively evolved human oral actinomyces‐sourced defensins show therapeutic potential” (EMBO Molecular Medicine, 2021).
Read-outs that look alike come from different tables or passages of the source. Where a SMILES comes first, the peptide text is derived from it. Bridges are numbered along the chain shown (N, C = ends).

How the values were obtained:
[1] = Stability in H2O (residual activity by inhibition-zone assay); assay type: physicochemical; conditions: 48‐h incubation in H2O at 37°C
[2] = 37°C
[3] = undiluted human serum (Human Serum AB), 0, 24 and 48 h, 37°C; read-out MRSA P1374, 1.0 nmol/well
[4] = SPR binding of UMP to immobilized AMSIN (Biacore T100); conditions: read-out: Binding affinity of AMSIN to UMP (K D); AMSIN immobilized on CM5, UMP 100–3.125 μM in PBS-T pH 7.5, 25°C; 1:1 Langmuir model
Experimental: Surface plasmon resonance (SPR) analysis was performed on a Biacore T100 instrument with a CM‐5 sensor chip (GE Healthcare Life Sciences, USA) at 25°C. An amide coupling chemistry strategy was used to immobilize AMSIN on the chip surface. […] Non‐reacted carboxylic groups on the sensor chip surface were blocked by ethanolamine‐HCl (1 M, pH 8.5) for 420 s at a flow rate of 10 μl/min. The final immobilization level was 1,778 RUs. For detecting binding, the analyte UMP was serially diluted twofold with the running buffer PBS‐T (PBS buffer containing 0.05% Tween 20, pH 7.5) at final concentrations of 100–3.125 μM. Then, they were used to flow over the chip surface at a flow rate of 30 μl/min for 60 s. Dissociation was monitored for 120 s by injecting the running buffer suddenly after samples at a flow rate of 30 μl/min for complete removal of specifically and non‐specifically bound biological material from the surface. Responses were measured in RUs as the difference between active and reference channels. The binding curve was fitted with the software BIAevaluation v2.0.1 using 1:1 Langmuir binding model.

[5] = Circular dichroism spectroscopy with UMP; assay type: binding; conditions: 50 mM NH4OAc, room temperature
Experimental: The spectra were measured at room temperature from 300 to 200 nm by using a quartz cell of 1.0 mm thickness. Data were collected at 1‐nm intervals with a scan rate of 2 nm/s.

SP D39 = experiment: Mouse lung infection model
Experimental: To this end, ICR female mice (30 g each mouse; 9–10 weeks of age) were anesthetized with 1.25% 2,2,2‐Tribromoethanol (Avertin) (Macklin, Shanghai, China) and hung by their front teeth on a steel wire. Then, they were inoculated intranasally with 10–20 µl bacterial suspension of SP D39 of fresh overnight culture (1.5 × 10^6 CFU per mouse) and then were removed from the wire to their cages. A control group of untreated mice was included. […] Mice were treated with penicillin as a positive control. At 48 h post‐infection, the mice were sacrificed and lungs removed and homogenized in 0.9% saline. Colony counts from lung homogenates were determined and the total number of colonies/lungs per mouse was calculated. Schematic representation is provided in Appendix Fig S16B.

[6] = tested on: SSAN (Streptococcus sanguinis); experiment: Analysis of lysis in liquid culture; assay type: cell-based; conditions: culture at OD600 of 0.2, 5–10 μM AMSIN, 24 h
[7] = Bioaffinity ESI-MS with UMP; assay type: binding, Staphylococcus aureus; conditions: 25 mM ammonium acetate (pH5.2)
Experimental: All components for interactions were dissolved in 25 mM ammonium acetate (pH5.2). Electrospray spectra were recorded with Waters SynaptG2‐Si mass spectrometer (Waters, Manchester, UK) and measurements were performed with positive ESI in resolution mode. Ions were scanned in a mass range of 500–2,000 m/z with the following conditions: the capillary voltage at 1,500 V; the cone voltage at 40 V; the source block temperature at 30°C. Spectra were recorded and processed by the software Masslynx4.1 (Waters, Manchester, UK).

[8] = tested on: Methicillin‐resistant coagulase negative Staphylococci P1369; experiment: Inhibition-zone assay (lethal concentration); assay type: cell-based, Staphylococcus; conditions: Broth Medium, 37°C
Description: Bacterial media used here included: Luria‐Bertani (LB) medium, THY medium (30 g Todd Hewitt broth and 5 g Yeast extract per liter), and tryptic soy broth (TSB) (Oxoid, Basingstoke, UK); Broth medium and brain–heart infusion (BHI) medium (Beijing Landbridge technology Limited by Share Ltd., Beijing, China); Potato dextrose (PD) medium (self‐prepared).
In brief, an overnight bacterial culture from a single colony was inoculated into fresh medium and grew to late log‐phase. A 10‐μl aliquot of each culture was diluted in 6‐ml pre‐heated medium containing 0.8% agar. The mixture was spread on a 9‐cm Petri dish, giving a depth of 1 mm. After settling, 3‐mm wells were punched in the plate and then 2‐μl peptide samples of different concentrations were added to each well. The agar plates were incubated overnight at indicated temperatures (Table EV4). A lethal concentration (C L ) was calculated from a plot of d^2 against log n, where d is the diameter (in cm) and n is the amount of sample applied in the well (in nmol). The plot is linear, and thus C L can be calculated from the slope (k) and the intercept (m) of this plot.

SP R6 = experiment: RNA sequencing of the stimulon; assay type: cell-based, Streptococcus pneumoniae; conditions: sub‐lethal concentration, 10 min
Experimental: Cells were harvested and washed with PBS buffer (pH 7.3) following further incubation for 10 min. Total RNA was isolated using the Bacteria Total RNA Isolation Kit (Sangon, China) according to the manufacturer’s instruction. RNA quality was assessed by NanoDrop and Agilent 2100 Bioanalyzer (Table EV6). After enrichment and fragment, mRNA was reverse transcribed into single‐strand DNA and then synthesized into double‐strand DNA. Following end‐filling, 5′‐phosphorylation, bubble adaptor ligation, and PCR amplification, a single‐strand circled DNA library was established for sequencing in BGISEQ‐500 sequencer (BGI, China) with a combinatorial probe‐anchor synthesis (cPAS) strategy.

CC[C@H](C)[C@@H]1NC(=O)[C@H](CCCCN)NC(=O)CNC(=O)[C@H](CCCNC(=N)N)NC(=O)[C@@H]2CSSC[C@H](NC(=O)CNC(=O)[C@H](Cc3ccccc3)NC(=O)CN)C(=O)N3CCC[C@H]3C(=O)N[C@@H](Cc3c[nH]c4ccccc34)C(=O)N[C@@H](CC(N)=O)C(=O)N[C@@H](C)C(=O)N[C@@H](Cc3ccc(O)cc3)C(=O)N[C@@H](CCC(=O)O)C(=O)N[C@H]3CSSC[C@H](NC(=O)[C@H]([C@@H](C)O)NC(=O)[C@H](CCC(N)=O)NC(=O)[C@H](CCCNC(=N)N)NC1=O)C(=O)N[C@@H](Cc1c[nH]cn1)C(=O)N[C@H](C(=O)N[C@@H](Cc1ccc(O)cc1)C(=O)O)CSSC[C@H](NC(=O)[C@H](Cc1c[nH]cn1)NC(=O)[C@H](CCCNC(=N)N)NC(=O)[C@H](CC(=O)O)NC3=O)C(=O)N[C@@H](C(C)C)C(=O)N[C@@H](CO)C(=O)N[C@@H](CCCCN)C(=O)NCC(=O)N[C@@H](Cc1ccc(O)cc1)C(=O)N[C@@H]([C@@H](C)O)C(=O)NCC(=O)NCC(=O)N[C@@H](CC(N)=O)C(=O)N2 [AMSIN] (H-GFGCPWNAYECDRHCVSKGYTGGNCRGKIRQTCHCY-OH; disulfide 4-25, 11-33, 15-35; N-terminus and C-terminus assumed)
Residual antibacterial activity [1]: full antibacterial activity | Residual antibacterial activity ([2]; 24 h in fresh normal mouse serum without dilution): full antibacterial activity | Activity in serum compared with in H2O ([2]; undiluted mouse serum, 48‐h study period): slight decrease | Activity in serum compared with in H2O [3]: slight decrease | Kd [4]: 24 µM | Complex with UMP by CD absorption signatures [5]: a complex was formed | Log10 (CFU per lung) (SP D39; 8.35 mg/kg i.m. 24 h after intranasal SP D39, lungs at 48 h post‐infection, animal 1): 3.3 Log10 (CFU per lung) | Log10 (CFU per lung) (SP D39; 8.35 mg/kg i.m., animal 2): 3.48 Log10 (CFU per lung) | Log10 (CFU per lung) (SP D39; 8.35 mg/kg i.m., animal 3): 3.3 Log10 (CFU per lung) | Log10 (CFU per lung) (SP D39; 8.35 mg/kg i.m., animal 4): 3 Log10 (CFU per lung) | Log10 (CFU per lung) (SP D39; 8.35 mg/kg i.m., animal 5): 3.78 Log10 (CFU per lung) | Log10 (CFU per lung) (SP D39; 16.7 mg/kg i.m., animal 1): 3.89 Log10 (CFU per lung) | Log10 (CFU per lung) (SP D39; 16.7 mg/kg i.m., animal 2): 1.48 Log10 (CFU per lung) | Log10 (CFU per lung) (SP D39; 16.7 mg/kg i.m., animal 3): 1 Log10 (CFU per lung) | Log10 (CFU per lung) (SP D39; 16.7 mg/kg i.m., animal 4): 4.2 Log10 (CFU per lung) | Log10 (CFU per lung) (SP D39; 16.7 mg/kg i.m., animal 5): 1.6 Log10 (CFU per lung) | Log10 (CFU per lung) (SP D39; 33 mg/kg i.m., animal 1): 1 Log10 (CFU per lung) | Log10 (CFU per lung) (SP D39; 33 mg/kg i.m., animal 2): 1.3 Log10 (CFU per lung) | Log10 (CFU per lung) (SP D39; 33 mg/kg i.m., animal 3): 1 Log10 (CFU per lung) | Log10 (CFU per lung) (SP D39; 33 mg/kg i.m., animal 4): 1.3 Log10 (CFU per lung) | Log10 (CFU per lung) (SP D39; 33 mg/kg i.m., animal 5): 1.48 Log10 (CFU per lung) | Reduction of CFU in lungs (SP D39; different doses (8.35, 16.7, 33 mg per kg i.m.)): 4.6–6.7 log10 | Toxicity of administration route in the model (SP D39; intramuscular injection (i.m.)): no obvious toxicity | Lysis of bacteria [6]: lytic effect | Non-covalent complex with UMP by ESI-MS [7]: quadruply protonated complex | Lethal concentration (C L) [8]: 1.07 µM | Transcriptional profile compared with vancomycin (SP R6): partly overlapped
